Values of other authors as cited in patent publication US6746695B1, “Pharmaceutical preparations of bioactive substances extracted from natural sources” (Armadillo Pharmaceuticals, Inc., priority 1998, dated 2004).
Where two headings read alike, the source gives them in different places.

Key:
[1] = chickens
[2] = Dogs
[3] = rats
[4] = mice
prostoglandin synthetase = target: T1, prostoglandin synthetase (Bos taurus, UniProt O62664); settings: enzyme prepared from bovine seminal vesicles; compared with aspirin
T1 construct: prostoglandin synthetase prepared from bovine seminal vesicles; from tissue; host or cells: bovine seminal vesicles
T1 sequence (O62664 25-600): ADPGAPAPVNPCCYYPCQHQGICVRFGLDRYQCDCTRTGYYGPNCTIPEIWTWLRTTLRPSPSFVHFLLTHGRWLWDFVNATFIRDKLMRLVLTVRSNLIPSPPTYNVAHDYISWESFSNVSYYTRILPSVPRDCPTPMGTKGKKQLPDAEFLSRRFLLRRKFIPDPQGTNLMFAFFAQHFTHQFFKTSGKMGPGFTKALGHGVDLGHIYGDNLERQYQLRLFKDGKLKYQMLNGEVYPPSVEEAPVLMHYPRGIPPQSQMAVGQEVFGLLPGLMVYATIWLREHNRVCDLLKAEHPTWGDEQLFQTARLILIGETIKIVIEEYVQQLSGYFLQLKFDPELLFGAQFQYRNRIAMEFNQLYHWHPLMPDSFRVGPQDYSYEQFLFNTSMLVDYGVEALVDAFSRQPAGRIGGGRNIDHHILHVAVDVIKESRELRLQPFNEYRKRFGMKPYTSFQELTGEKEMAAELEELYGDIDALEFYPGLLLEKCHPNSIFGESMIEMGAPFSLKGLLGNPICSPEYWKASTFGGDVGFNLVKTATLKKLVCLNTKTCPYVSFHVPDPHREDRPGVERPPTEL

SMILES | food intake [1] | weight reduction [2] | food intake [3] | food intake [4] | potency as inhibitor of prostoglandin synthetase relative to aspirin (prostoglandin synthetase)
CO[C@H]1[C@@H](OC)C[C@@H](O[C@@H]2O[C@H](CO)[C@@H](O)[C@H](O)[C@H]2O)/C(=C\C#N)[C@@H]1O [Simmondsin] | reducing food intake | useful weight reduction agent | reducing food intake | reducing food intake | –
COc1ccc2c(c1OC)-c1cc(ccc1O)/C=C\C(=O)O[C@H]1C[C@@H]3CCCCC3[C@H]2C1 (stereo partly drawn) [nesodine] | – | – | – | – | more than twice as potent as aspirin
COc1cc2c(cc1OC)[C@@H]1C[C@H](C[C@H]3CCCCN31)OC(=O)/C=C\c1ccc(O)c-2c1 [cryogenine] | – | – | – | – | more than twice as potent as aspirin
